Assay results published in patent US10625229B2, “Device for preparing nano-carbon urea” (BEIJING NANO HI-TECH MATERIAL CO., LTD., priority 2016, dated 2020).

Assays:
soybean = test: Soybean potted test of nano urea (Heilongjiang); format: in vivo; conditions: urea 10.8 g per pot (full dosage), 3 plants per pot
Excerpt: Soybean Experiment in Heilongjiang Agricultural Academy Test site: Heilongjiang Academy of Agricultural Sciences Laboratory Entrusted unit: Plant Nutrition and Environment Institute of Heilongjiang Agricultural Academy To determine the application effect and nitrogen utilization rate of nano-fertilizer on soybean and rice. Nano urea (46-0-0), calcium superphosphate (0-43-0), potassium sulfate (0-0-0-50), nano carbon sol content 0.57% solute, added amount is 10% of urea weight. Soybeans Potted Test There 3 plants per pot, repeat 6 times. N:P:K rating is 5:3.5:3, the results are as follows: […]

corn = test: Field experiment on application of nano-carbon urea in corn (2016, Inner Mongolia); format: in vivo, corn variety Simon 568; conditions: Pure N 20 kg/a unit of area (no nitrogen reduction)
Excerpt: The results of the experiment on the application of nano-carbon urea by bimeng academy of agricultural sciences in Inner Mongolia in 2016 are as follows: Nano-carbon urea is provided by the invention containing 46% nitrogen, and the amount of nano-carbon sol added is 10% of fertilizer weight, color: grey. Corn variety: Simon 568 Test site: Garden Canal Test Station of Agriculture and Animal Husbandry Science Research Institute, Bayannur City Random plot arrangement, 5 treatments, four repeats, […], mulch planting.

NC(N)=O [Common urea, urea]
Average yield g/pot (soybean): 50 g/pot | Yield kg/a unit of area (corn): 1002.98 kg/a unit of area
